Laboratory results taken from US20110039763A1, “TARGETED ANTIMICROBIAL MOIETIES” (C3 JIAN, INC., priority 2009, published 2011).
“Also recorded” adds a separate entry of the source.

How the values were obtained:
[1] = system: microorganisms; test: Peptide activities: targeting/binding, antimicrobial, growth or phenotype altering (Tables 7, 8); assay type: cell-based; details: peptides having multiple activities
[2] = system: microorganisms; test: Targeting peptide binding to target microorganisms (Tables 3, 10, 12); details: microorganism(s) the targeting peptide binds; binding in aqueous buffers varied with peptide solubility, preferably 1x PBS
[3] = system: microorganisms; test: Morphology, biofilm and growth disrupting peptides (Table 5); assay type: cell-based; set-up: key: A: Peptide aggregates; B: Less hyphal formation; Clumps; Diffuse clumps and small polyps; F: Diffuse growth; H: Thin; I: Growth inhibition; Microcolony formation; Rippled; Small polyps; Thick; W: Halo formation on top, microlonies on bottom
From the text: In certain embodiments peptides that induce alterations in phenotype or other biological activities can also be used as antimicrobial effector moieties.

Row | Substance | Activities [1] | Target(s) [2] | Organism, effect ([3]; B. subtilis) | Organism, effect ([3]; C. albicans) | Organism, effect ([3]; E. faecalis) | Organism, effect ([3]; S. pneumoniae) | Organism, effect ([3]; C. jeikeium) | Organism, effect ([3]; MRSA) | Organism, effect ([3]; S. epidermidis) | Organism, effect ([3]; E. coli) | Organism, effect ([3]; M. luteus) | Organism, effect ([3]; P. mirabilis) | Organism, effect ([3]; S. mutans) | Organism, effect ([3]; P. aeruginosa)
1 | PF-636: peptide having multiple activities (chain 1 LVRLA; chain 2 LVRLA; Peptide with targeting and/or antimicrobial activity) | G B | S. epidermidis and C. albicans and MRSA and S. pneumoniae and E. faecalis | B. subtilis (H) | C. albicans (B) | E. faecalis (H) | S. pneumoniae (H) | – | – | – | – | – | – | – | –
2 | PF-637: peptide having multiple activities (chain 1 SRIKQDARSVRKYDRIGIFFYSFKSA; chain 2 SRIKQDARSVRKYDRIGIFFYSFKSA; Peptide with targeting and/or antimicrobial activity) | G B | S. epidermidis and P. aeruginosa and C. albicans and MRSA and S. pneumoniae and E. faecalis and C. jeikeium | – | – | E. faecalis (D) | S. pneumoniae (M) | C. jeikeium (D) | MRSA (M) | S. epidermidis (M) | – | – | – | – | –
3 | PF-638: peptide having multiple activities (chain 1 TFILPK; chain 2 TFILPK; Peptide with targeting and/or antimicrobial activity) | G B | S. epidermidis and C. albicans and MRSA and C. jeikeium | – | – | E. faecalis (H) | S. pneumoniae (I) | – | MRSA (M) | S. epidermidis (R) | – | – | – | – | –
4 | PF-639: peptide having multiple activities (chain 1 QATQIKSWIDRLLVSED; chain 2 QATQIKSWIDRLLVSED; Peptide with targeting and/or antimicrobial activity) | G B | S. pneumoniae; also recorded: C. jeikeium | – | C. albicans (B) | E. faecalis (H) | S. pneumoniae (I) | – | MRSA (R) | – | – | – | – | – | –
5 | PF-640: peptide having multiple activities (chain 1 MGDINRNF; chain 2 MGDINRNF; Peptide with targeting and/or antimicrobial activity) | G B | C. albicans | – | C. albicans (B) | E. faecalis (H) | S. pneumoniae (I) | – | – | – | – | – | – | – | –
6 | PF-642: peptide having multiple activities (chain 1 FTTPMIGIPAGLLGGSYYLKRREEKGK; chain 2 FTTPMIGIPAGLLGGSYYLKRREEKGK; Peptide with targeting and/or antimicrobial activity) | G B | M. luteus and MRSA and C. jeikeium | – | – | – | – | – | MRSA (M) | – | – | – | – | – | –
7 | PF-655: peptide having multiple activities (chain 1 DAPCFDDQFGDLKCQMC; chain 2 DAPCFDDQFGDLKCQMC; Peptide with targeting and/or antimicrobial activity) | G B | M. smegmatis | B. subtilis (H) | – | – | S. pneumoniae (H) | – | MRSA (M) | S. epidermidis (R) | – | – | – | – | –
8 | PF-664: peptide having multiple activities (chain 1 DQLCVEYPARVSTG; chain 2 DQLCVEYPARVSTG; Peptide with targeting and/or antimicrobial activity) | G B | M. smegmatis | – | – | E. faecalis (R) | S. pneumoniae (M) | – | MRSA (R) | S. epidermidis (M) | – | – | – | – | –
9 | PF-681: peptide having multiple activities (TALTTVGVSGARLITYCVGVEDI; Peptide with targeting and/or antimicrobial activity) | G B | M. smegmatis | – | – | E. faecalis (R) | S. pneumoniae (M) | C. jeikeium (R) | MRSA (M) | S. epidermidis (M) | – | – | – | – | –
10 | PF-686: peptide having multiple activities (LAVLMGYIGYRGWSGKRHINRQ; Peptide with targeting and/or antimicrobial activity) | G B | M. smegmatis | B. subtilis (I) | C. albicans (B) | E. faecalis (R) | S. pneumoniae (A) | – | MRSA (M) | S. epidermidis (H) | – | – | – | – | –
11 | PF-737: peptide having multiple activities (KSSGSSASASSTAGGSSSK; Peptide with targeting and/or antimicrobial activity) | G B | S. epidermidis; also recorded: S. pneumoniae | – | – | – | S. pneumoniae (D) | – | – | – | – | – | – | – | –
12 | PF-738: peptide having multiple activities (KSGATSAASGAKSGASS; Peptide with targeting and/or antimicrobial activity) | G B | S. epidermidis; also recorded: C. albicans; also recorded: C. jeikeium | – | – | – | – | – | MRSA (M) | – | – | – | – | – | –
13 | PF-741: peptide having multiple activities (AKREDTVAAQIGANILNLIQ; Peptide with targeting and/or antimicrobial activity) | G B | S. epidermidis and M. luteus and P. mirabilis and P. aeruginosa and C. albicans and MRSA and S. pneumoniae and E. faecalis | – | – | – | S. pneumoniae (D) | – | MRSA (C) | S. epidermidis (C) | E. coli (C) | M. luteus (C) | P. mirabilis (C) | S. mutans (D) | –
14 | PF-744: peptide having multiple activities (LGVGTFVGKVLIKNQQKQKSKKKAQ; Peptide with targeting and/or antimicrobial activity) | G B | S. epidermidis and M. luteus and E. coli and MRSA and S. pneumoniae and E. faecalis and C. jeikeium | – | – | – | S. pneumoniae (H) | – | – | – | – | – | – | – | –
15 | PF-746: peptide having multiple activities (FLGNSQYFTRK; Peptide with targeting and/or antimicrobial activity) | G B | S. epidermidis; also recorded: M. luteus; also recorded: E. coli; also recorded: C. albicans; also recorded: S. pneumoniae; also recorded: E. faecalis; also recorded: C. jeikeium | – | – | – | S. pneumoniae (C) | – | MRSA (C) | S. epidermidis (C) | E. coli (C) | M. luteus (C) | – | S. mutans (D) | P. aeruginosa (A)
16 | PF-756: peptide having multiple activities (DALLRLA; Peptide with targeting and/or antimicrobial activity) | G B | S. epidermidis and M. luteus and C. albicans and MRSA and C. jeikeium | – | – | – | S. pneumoniae (A) | – | – | – | – | – | – | – | –
17 | PF-757: peptide having multiple activities (PQAISSVQQNA; Peptide with targeting and/or antimicrobial activity) | G B | M. luteus and C. albicans and MRSA | – | – | – | S. pneumoniae (H) | – | – | – | – | – | – | – | –
18 | PF-760: peptide having multiple activities (DHITLDDYEIHDGFNFELYYG; Peptide with targeting and/or antimicrobial activity) | G B | S. epidermidis; also recorded: M. luteus | – | – | – | S. pneumoniae (C) | – | MRSA (M) | S. epidermidis (M) | – | – | – | – | –
19 | PF-761: peptide having multiple activities (SKFELVNYASGCSCGADCKCASETECKCASKK; Peptide with targeting and/or antimicrobial activity) | G B | S. epidermidis and M. luteus and P. mirabilis and P. aeruginosa and C. albicans and MRSA and S. pneumoniae and E. faecalis | – | – | – | S. pneumoniae (C) | – | MRSA (D) | S. epidermidis (C) | E. coli (C) | M. luteus (C) | – | S. mutans (D) | P. aeruginosa (C)
20 | PF-762: peptide having multiple activities (PAPAPSAPAPAPEQPEQPA; Peptide with targeting and/or antimicrobial activity) | G B | M. luteus; also recorded: C. albicans | – | – | – | S. pneumoniae (H) | – | – | – | – | – | – | – | –
21 | PF-764: peptide having multiple activities (GYFEPGKRD; Peptide with targeting and/or antimicrobial activity) | G B | S. epidermidis and M. luteus and C. albicans and MRSA and S. pneumoniae and E. faecalis and C. jeikeium | – | – | – | S. pneumoniae (H) | – | MRSA (D) | – | – | – | – | – | –
